These results are taken from patent US20190336486A1, “METHODS FOR TREATING CANCER AND METABOLIC SYNDROME” (GLAX LLC, priority 2018, published 2019).

Common to all, as to format: cell-based
Assay [1] has as its system colorectal CSCs. The assay can be described thus: Cell proliferation of colorectal CSCs (FIG. 11).
Assay [2] deals with human normal lung epithelial cells (Beas 2B). The assay can be described thus: Cell proliferation of normal lung epithelial cells (FIG. 9).
In assay [3] the test system is brain CSCs. Description: Colony formation by brain CSCs (FIG. 8).
Assay [4] deals with brain CSCs. Description: Cell proliferation of brain CSCs (FIG. 7).
Assay [5] deals with lung cancer cells (A549). The assay can be described thus: Cell proliferation of lung cancer cells (FIG. 9).
Assay [6] concerns breast cancer cells. The assay can be described thus: Cell proliferation of breast cancer cells (FIG. 12).
The test system of assay [7] is prostate cancer cells. Description: Cell proliferation of prostate cancer cells (FIG. 13).
Assay [8] deals with lung cancer cells. Description: Colony formation by lung cancer cells (FIG. 10).
The subject of assay [9] is glioblastoma cells. The assay can be described thus: Colony formation by glioblastoma cells (FIG. 8).
Assay [10] relates to glioblastoma cell lines. Description: Cell proliferation of glioblastoma cell lines (FIG. 7).

Structures are written as SMILES.

Regarding `Nc1nc(CC(=O)Nc2ccc(CCNC[C@H](O)c3ccccc3)cc2)cs1` [Mirabegron], the cell proliferation result in assay [1] is on record as “inhibits cell proliferation”; in assay [2], “has no effect”; in assay [4], “inhibits cell proliferation”; in assay [5] it was “inhibits cell proliferation”; in assay [6], “inhibits cell proliferation”; in [7] it was “inhibits cell proliferation”. For the same compound, the cell proliferation result in assay [10] was “inhibits cell proliferation”. Moreover, the colony formation entry in assay [3], in [8] and in assay [9] was “inhibits colony formation” each time.
